{"source": "patent US9107415B2", "about": "“2-(substituted-phenyl)-cyclopentane-1,3-dione compounds, and derivatives thereof” (Syngenta Limited, priority 2011, dated 2015)", "type_in_all_cases": "in vivo", "key": {"Lolium perenne (LOLPE)": {"tested_on": "Lolium perenne (LOLPE)", "experiment": "Biological Example 1 glasshouse screen, post-emergence herbicidal activity", "conditions": "312 h, application rate 250 g/ha, evaluated after 13 days, read-out: LOLPE percentage phytotoxicity", "in_short": "(§1)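 Pots in a glasshouse (24/16°C day/night, 14 h light, 65% humidity) were sprayed one day after sowing (pre-emergence) or after 8 days (post-emergence), using acetone/water (50:50) with 0.5% Tween 20. Phytotoxicity was scored visually as % damage (0-100) 13 days after application.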"}, "Avena fatua (AVEFA) [1]": {"tested_on": "Avena fatua (AVEFA)", "experiment": "Biological Example 1 glasshouse screen, post-emergence herbicidal activity", "conditions": "312 h, application rate 250 g/ha, evaluated after 13 days, read-out: AVEFA percentage phytotoxicity", "in_short": "as §1"}, "Setaria viridis (SETVI)": {"tested_on": "Setaria viridis (SETVI)", "experiment": "Biological Example 4A (previously-formulated compounds) post-emergence herbicidal activity on grassy weeds", "conditions": "14 DAA, EC formulation, mean of two", "description": "(§2) Seeds of a variety of test species are sown in standard soil in pots. After cultivation for 14 days under controlled conditions in a glasshouse (at 22/16°C., day/night; 16 hours light; 65% humidity), the plants are sprayed with the test compounds. The test plants are then grown on under controlled conditions in the glasshouse (at 22/16°C., day/night; 16 hours light; 65% humidity) and are watered twice daily. After 14 days the test is evaluated visually (100%=total damage to plant; 0%=no damage to plant). Post-emergence herbicidal activity (phytotoxicity) data, on certain grassy monocotyledonous weeds and cereal crops in a glasshouse, are measured 14 days after application of the herbicide (14 DAA), inter alia for post-emergence application rates of 30 or 60 g/ha of the test herbicide, with or without 50 g/ha of cloquintocet-mexyl safener applied at substantially the same time as the herbicide.\n(§3) Herbicidal activity (phytotoxicity) is evaluated visually, and an assessed percentage phytotoxicity score is given for each herbicidal application on each plant species (with 100%=total damage to plant; 0%=no damage to plant). Two repetitions are made for each experiment and the mean herbicidal activity (phytotoxicity) data is reported.\n(§4) Biological Example 4A is used on previously-formulated compounds, typically compounds previously formulated as an emulsifiable concentrates (EC), wherein the EC contains the herbicidal compound under test dissolved in one or more organic solvents, and wherein the EC also contains one or more surfactants or emulsifiers. In the test method, the EC containing the herbicide (plus a cloquintocet-mexyl formulation if this is also present) is generally diluted with water to form an emulsion, and the resulting emulsion is sprayed onto the emerged weed and/or crop plants.\n(§5) For the testing of Compounds A-5 and A-6, each of these compounds was separately formulated into an emulsifiable concentrate containing 10% w/w of the herbicidal compound, 9% w/w of castor oil ethoxylate (an emulsifier, present as Emulsogen™EL360), 6% w/w of calcium dodecylbenzenesulfonate (linear) (an emulsifier, present as Nansa™EVM 63B), 3% w/w of tristyrylphenol ethoxylate having 16 moles of ethoxylation per mole of molecule (an emulsifier, present as Soprophor™BSU), 10% w/w of benzyl benzoate (as solvent), 20% w/w of 1-methyl-2-pyrrolidone (as solvent), and the remainder of N-octyl-2-pyrrolidone (as solvent). The solvents and surfactants/emulsifiers were first mixed together, to form a “blank” EC, and the herbicidal compound was then added to and dissolved in this solvent and emulsifier mixture to prepare the emulsifiable concentrate, to give an EC formulation/composition containing approximately 100 g/L of active herbicidal compound.\n(§6) In the tests of Compounds A-5 and A-6, the cloquintocet-mexyl was pre-formulated as a formulation/composition containing 10% w/w cloquintocet-mexyl, 6% w/w Emulsogen™ EL360 (as emulsifier), 4% w/w Nansa™EVM 63B (as wetting agent), 1% w/w Drapex™39 (epoxidised soybean oil), 20% w/w 1-methyl-2-pyrrolidone (as solvent), and the remainder as Solvesso™200ND (a mixture of heavy aromatic hydrocarbons, as a solvent).\n(§7) Test plants: Avena fatua (AVEFA), Lolium multiflorum (LOLMU), Setaria viridis (SETVI), Poa annua (POAAN), Alopecurus myosuroides (ALOMY). All five of these are grassy monocotyledonous weeds."}, "[2]": {"tested_on": "Lolium multiflorum (LOLMU)", "experiment": "Biological Example 4A (previously-formulated compounds) post-emergence herbicidal activity on grassy weeds", "conditions": "14 DAA, EC formulation, mean of two", "description": "as §2, §3, §4, §5, §6, §7"}, "Poa annua (POAAN)": {"tested_on": "Poa annua (POAAN)", "experiment": "Biological Example 4A (previously-formulated compounds) post-emergence herbicidal activity on grassy weeds", "conditions": "14 DAA, EC formulation, mean of two", "description": "as §2, §3, §4, §5, §6, §7"}, "Avena fatua (AVEFA) [3]": {"tested_on": "Avena fatua (AVEFA)", "experiment": "Biological Example 4A (previously-formulated compounds) post-emergence herbicidal activity on grassy weeds", "conditions": "14 DAA, EC formulation, mean of two", "description": "as §2, §3, §4, §5, §6, §7"}, "[4]": {"tested_on": "Alopecurus myosuroides (ALOMY)", "experiment": "Biological Example 4A (previously-formulated compounds) post-emergence herbicidal activity on grassy weeds", "conditions": "14 DAA, EC formulation, mean of two", "description": "as §2, §3, §4, §5, §6, §7"}, "[5]": {"tested_on": "Echinochloa crus-galli (ECHCG)", "experiment": "Biological Example 1 glasshouse screen, post-emergence herbicidal activity", "conditions": "312 h, application rate 250 g/ha, evaluated after 13 days, read-out: ECHCG percentage phytotoxicity", "in_short": "(§8)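 Potted test species received a foliar or soil spray of active ingredient in acetone/water (50:50), 0.5% Tween 20, at 1 or 8 days after sowing for pre- and post-emergence respectively. Percentage phytotoxicity was assessed by eye after 13 days.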"}, "[6]": {"tested_on": "Alopecurus myosuroides (ALOMY)", "experiment": "Biological Example 1 glasshouse screen, post-emergence herbicidal activity", "conditions": "312 h, application rate 250 g/ha, evaluated after 13 days, read-out: ALOMY percentage phytotoxicity", "in_short": "as §8"}, "Winter Wheat “Hereward”": {"tested_on": "Winter Wheat “Hereward”", "experiment": "Biological Example 4A post-emergence phytotoxicity on cereal crops", "conditions": "14 DAA, EC formulation, mean of two", "description": "as §2, §3, §4, §5, §6"}, "Winter Barley “Suzuka”": {"tested_on": "Winter Barley “Suzuka”", "experiment": "Biological Example 4A post-emergence phytotoxicity on cereal crops", "conditions": "14 DAA, EC formulation, mean of two", "description": "as §2, §3, §4, §5, §6"}, "[7]": {"tested_on": "Spring Barley “Harrington”", "experiment": "Biological Example 4A post-emergence phytotoxicity on cereal crops", "conditions": "14 DAA, EC formulation, mean of two", "description": "as §2, §3, §4, §5, §6"}, "Spring Wheat “Teal”": {"tested_on": "Spring Wheat “Teal”", "experiment": "Biological Example 4A post-emergence phytotoxicity on cereal crops", "conditions": "14 DAA, EC formulation, mean of two", "description": "as §2, §3, §4, §5, §6"}, "[8]": {"conditions": "30 g/ha, cloquintocet-mexyl 0 g/ha"}, "[9]": {"conditions": "30 g/ha, cloquintocet-mexyl 50 g/ha"}, "[10]": {"conditions": "60 g/ha, cloquintocet-mexyl 0 g/ha"}, "[11]": {"conditions": "60 g/ha, cloquintocet-mexyl 50 g/ha"}}}
{"smiles": "CC#Cc1cc(C)c(C2=C(O)C[C@H](Cc3ccccn3)C2=O)c(C)c1", "note": "[Compound A-5]", "values": [{"measurement": "pest or weed control at 250 g/ha", "setting": "Lolium perenne (LOLPE)", "value": 80, "unit": "%"}, {"measurement": "pest or weed control at 250 g/ha", "setting": "Avena fatua (AVEFA) [1]", "value": 90, "unit": "%"}, {"measurement": "SETVI % phytotoxicity", "setting": "Setaria viridis (SETVI); [8]", "value": 80, "unit": "%"}, {"measurement": "SETVI % phytotoxicity", "setting": "Setaria viridis (SETVI); [9]", "value": 85, "unit": "%"}, {"measurement": "SETVI % phytotoxicity", "setting": "Setaria viridis (SETVI); [10]", "value": 98, "unit": "%"}, {"measurement": "SETVI % phytotoxicity", "setting": "Setaria viridis (SETVI); [11]", "value": 95, "unit": "%"}, {"measurement": "LOLMU % phytotoxicity", "setting": "[2]; [8]", "value": 93, "unit": "%"}, {"measurement": "LOLMU % phytotoxicity", "setting": "[2]; [9]", "value": 68, "unit": "%"}, {"measurement": "LOLMU % phytotoxicity", "setting": "[2]; [10]", "value": 95, "unit": "%"}, {"measurement": "LOLMU % phytotoxicity", "setting": "[2]; [11]", "value": 99, "unit": "%"}, {"measurement": "POAAN % phytotoxicity", "setting": "Poa annua (POAAN); [8]", "value": 0, "unit": "%"}, {"measurement": "POAAN % phytotoxicity", "setting": "Poa annua (POAAN); [9]", "value": 13, "unit": "%"}, {"measurement": "POAAN % phytotoxicity", "setting": "Poa annua (POAAN); [10]", "value": 18, "unit": "%"}, {"measurement": "POAAN % phytotoxicity", "setting": "Poa annua (POAAN); [11]", "value": 5, "unit": "%"}, {"measurement": "AVEFA % phytotoxicity", "setting": "Avena fatua (AVEFA) [3]; [8]", "value": 58, "unit": "%"}, {"measurement": "AVEFA % phytotoxicity", "setting": "Avena fatua (AVEFA) [3]; [9]", "value": 23, "unit": "%"}, {"measurement": "AVEFA % phytotoxicity", "setting": "Avena fatua (AVEFA) [3]; [10]", "value": 83, "unit": "%"}, {"measurement": "AVEFA % phytotoxicity", "setting": "Avena fatua (AVEFA) [3]; [11]", "value": 68, "unit": "%"}, {"measurement": "ALOMY % phytotoxicity", "setting": "[4]; [8]", "value": 58, "unit": "%"}, {"measurement": "ALOMY % phytotoxicity", "setting": "[4]; [9]", "value": 63, "unit": "%"}, {"measurement": "ALOMY % phytotoxicity", "setting": "[4]; [10]", "value": 93, "unit": "%"}, {"measurement": "ALOMY % phytotoxicity", "setting": "[4]; [11]", "value": 98, "unit": "%"}, {"measurement": "pest or weed control at 250 g/ha", "setting": "[5]", "value": 90, "unit": "%"}, {"measurement": "pest or weed control at 250 g/ha", "setting": "[6]", "value": 80, "unit": "%"}, {"measurement": "Winter Wheat “Hereward” phytotoxicity (%)", "setting": "Winter Wheat “Hereward”; [8]", "value": 40, "unit": "%"}, {"measurement": "Winter Wheat “Hereward” phytotoxicity (%)", "setting": "Winter Wheat “Hereward”; [9]", "value": 0, "unit": "%"}, {"measurement": "Winter Wheat “Hereward” phytotoxicity (%)", "setting": "Winter Wheat “Hereward”; [10]", "value": 53, "unit": "%"}, {"measurement": "Winter Wheat “Hereward” phytotoxicity (%)", "setting": "Winter Wheat “Hereward”; [11]", "value": 0, "unit": "%"}, {"measurement": "Winter Barley “Suzuka” phytotoxicity (%)", "setting": "Winter Barley “Suzuka”; [8]", "value": 33, "unit": "%"}, {"measurement": "Winter Barley “Suzuka” phytotoxicity (%)", "setting": "Winter Barley “Suzuka”; [9]", "value": 0, "unit": "%"}, {"measurement": "Winter Barley “Suzuka” phytotoxicity (%)", "setting": "Winter Barley “Suzuka”; [10]", "value": 65, "unit": "%"}, {"measurement": "Winter Barley “Suzuka” phytotoxicity (%)", "setting": "Winter Barley “Suzuka”; [11]", "value": 0, "unit": "%"}, {"measurement": "Spring Barley “Harrington” phytotoxicity (%)", "setting": "[7]; [8]", "value": 73, "unit": "%"}, {"measurement": "Spring Barley “Harrington” phytotoxicity (%)", "setting": "[7]; [9]", "value": 3, "unit": "%"}, {"measurement": "Spring Barley “Harrington” phytotoxicity (%)", "setting": "[7]; [10]", "value": 88, "unit": "%"}, {"measurement": "Spring Barley “Harrington” phytotoxicity (%)", "setting": "[7]; [11]", "value": 18, "unit": "%"}, {"measurement": "Spring Wheat “Teal” phytotoxicity (%)", "setting": "Spring Wheat “Teal”; [8]", "value": 43, "unit": "%"}, {"measurement": "Spring Wheat “Teal” phytotoxicity (%)", "setting": "Spring Wheat “Teal”; [9]", "value": 0, "unit": "%"}, {"measurement": "Spring Wheat “Teal” phytotoxicity (%)", "setting": "Spring Wheat “Teal”; [10]", "value": 80, "unit": "%"}, {"measurement": "Spring Wheat “Teal” phytotoxicity (%)", "setting": "Spring Wheat “Teal”; [11]", "value": 0, "unit": "%"}]}
